In US7482344B2, “Tricyclic steroid hormone nuclear receptor modulators” (Eli Lilly and Company, priority 2003, dated 2009):

Biological target: T1, MR (Homo sapiens, UniProt P08235)
T1 sequence (P08235 1-984): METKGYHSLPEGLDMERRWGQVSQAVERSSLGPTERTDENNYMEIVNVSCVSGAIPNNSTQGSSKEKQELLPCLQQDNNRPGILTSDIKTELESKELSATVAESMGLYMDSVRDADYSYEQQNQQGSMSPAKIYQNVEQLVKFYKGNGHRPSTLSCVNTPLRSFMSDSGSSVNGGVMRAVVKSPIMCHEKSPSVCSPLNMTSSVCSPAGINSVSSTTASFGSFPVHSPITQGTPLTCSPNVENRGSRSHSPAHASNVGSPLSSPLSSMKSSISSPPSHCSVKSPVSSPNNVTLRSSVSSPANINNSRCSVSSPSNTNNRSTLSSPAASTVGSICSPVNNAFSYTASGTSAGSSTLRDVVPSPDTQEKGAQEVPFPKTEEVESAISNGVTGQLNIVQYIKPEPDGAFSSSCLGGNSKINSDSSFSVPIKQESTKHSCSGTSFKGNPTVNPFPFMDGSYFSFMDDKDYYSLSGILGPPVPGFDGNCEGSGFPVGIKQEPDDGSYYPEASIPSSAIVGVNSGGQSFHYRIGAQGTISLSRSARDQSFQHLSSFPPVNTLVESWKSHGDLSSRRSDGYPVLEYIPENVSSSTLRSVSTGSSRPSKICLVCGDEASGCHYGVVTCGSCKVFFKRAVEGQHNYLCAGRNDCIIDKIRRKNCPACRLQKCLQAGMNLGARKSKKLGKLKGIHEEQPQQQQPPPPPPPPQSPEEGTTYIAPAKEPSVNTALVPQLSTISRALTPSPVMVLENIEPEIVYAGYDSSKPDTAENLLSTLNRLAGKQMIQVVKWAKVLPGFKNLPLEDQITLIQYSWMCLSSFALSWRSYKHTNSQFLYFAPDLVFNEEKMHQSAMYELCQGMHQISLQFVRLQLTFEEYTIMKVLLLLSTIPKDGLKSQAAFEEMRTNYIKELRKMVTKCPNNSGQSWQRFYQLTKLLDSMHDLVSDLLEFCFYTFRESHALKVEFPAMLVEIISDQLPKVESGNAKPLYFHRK
Assay: Mineralocorticoid Receptor Binding Assay (Method 1), [3H]-aldosterone competition
Design: The full length human MR gene is cloned from a human kidney or human brain cDNA library; made in house; host or cells: SF9 insect cells (pAcHLT baculovirus transfer vector)
Details: human MR expressed in Sf9 cells, 0.5 nM [3H]-aldosterone
Procedure: Mineralocorticoid Receptor Binding Assay (Method 1):
The full length human MR gene is cloned from a human kidney or human brain cDNA library. Briefly, using synthetic oligonucleotide primers (Eli Lilly and Company, Indianapolis) directed to nucleotides 20-54 and 3700-3666 of the human MR, polymerase chain reaction (PCR) is performed under standard conditions using a human cDNA library. The PCR reaction is performed in a final volume of 50 μl containing about 1μl of a 50× stock solution of polymerase; about 1 μl of a 50× stock solution of dNTP; about 5μl of an appropriate PCR buffer; about 1 μl of each primer; about 5 μl of a H. kidney or H. brain cDNA library; and about 36 μl of water. The reaction is allowed to denature for about 30 seconds at 95 degrees Celsius, anneal for about 30 seconds at 55 degrees Celsius, and extend for about 5 minutes at 72 degrees Celsius, the sequence being repeated for a total of about 35 cycles. The desired PCR product (3.68 Kb) is confirmed by gel electrophoresis and subsequently cut from the gel and stored at about −20 degrees Celsius until extraction. To extract the cDNA product from the agarose gel, the QIAEX II Gel Extraction protocol (QIAGEN, Inc.) is employed according to the manufacturer's instructions. Following extraction, the MR cDNA is cloned into an appropriate cloning vector (Zero Blunt TOPO PCR Cloning Kit (Invitrogen, Inc.) and a pAcHLT-baculovirus transfer vector (B.D./Pharminogen), then expressed in SF9 insect cells, essentially according to manufacturer's instructions. Sf9 cells are grown at a scale where gram quantity cell pellets are obtained for subsequent use in the MR binding assay. Harvested cell pellets are lysed by repeated freeze-thaw cycles (about 4) in a suitable lysis buffer then centrifuged at about 1×10^3G (with the supernatant being saved for future assays).
MR binding assays are performed in a final total volume of about 250 μl containing about 20-25 μg of protein and 0.5 nM of [^3H]-aldosterone plus varying concentrations of test compound or vehicle. The assay binding buffer consists of 30 mM sodium molybdate, 30 mM of TRIS-HCl, 5 mM sodium phosphate, 5 mM sodium pyrophosphate, and about 10% glycerol, pH=7.5.
Briefly, assays are prepared at RT in 96-well Falcon 3072 plates, each well containing 210 μof binding buffer, 10 μl of […], 10 μl of test compound/vehicle, and 20 μl of the resuspended receptor protein extract. Incubations are carried out at 4 degrees Celsius with shaking for about 16 hours. 200 μl aliquots of each incubation are filtered onto Millipore HA 0.45 micron 96-well filter plates, pre-moistened with cold 30 mM TRIS-HCl. The filter plates are suctioned dry with vacuum and immediately washed 3× with cold 30 mM TRIS-HCl. The plates are then punched out and the amount of receptor-ligand complex is determined by liquid scintillation counting using 4 ml of Ready Protein Plus™ liquid scintillation cocktail.

SMILES | Ki [nM]
CC(=C1c2ccccc2Sc2ccccc21)c1cccc(NS(C)(=O)=O)c1 [Example 4, 9-[1-(3-methylsulfonoylaminophenyl)ethylene] thioxanthine] | < 500
O=c1[nH]c2ccc(C=C3c4ccc(F)cc4Sc4cc(F)ccc43)cc2[nH]1 [Example 5, 5-(3,6-Difluoro-thioxanthen-9-ylidenemethyl)-1,3-dihydro-benzoimidazol-2-one] | < 500
O=c1[nH]c2ccc(C=C3c4ccccc4Sc4ccccc43)cc2[nH]1 [Example 10] | < 500
O=c1[nH]c2cc(C=C3c4ccccc4Sc4ccccc43)ccc2n1CCN1CCOCC1 [Example 13] | < 500
CN1CCN(CCn2c(=O)[nH]c3cc(C=C4c5ccccc5Sc5ccccc54)ccc32)CC1 [Example 14] | < 500

Other lines, results leading:

Ki [nM] | SMILES
< 500 | CC(=C1c2ccccc2Sc2ccccc21)c1cccc(N)c1 [Example 6]
< 500 | CS(=O)(=O)Nc1cccc(C=C2c3ccccc3Sc3ccccc32)c1 [Example 8]
< 500 | Nc1cccc(C=C2c3ccccc3Sc3ccccc32)c1 [Example 9]
< 500 | O=c1[nH]c2cc(C=C3c4ccccc4Sc4ccccc43)ccc2o1 [Example 11]
< 500 | O=c1[nH]c2cc(C=C3c4ccccc4Sc4ccccc43)ccc2s1 [Example 12]
< 500 | Oc1ccccc1C=C1c2ccccc2Sc2ccccc21 [Example 15]
